# Laboratory results published in US10821115B2, “Compounds that inhibit Mcl-1 protein” (priority 2017, dated 2020).
# Read-outs that look alike come from different tables or passages of the source.
# Columns and labels:
# [1] = system: human multiple myeloma cell line, OPM-2; assay: Cell viability assay (OPM-2 10 FBS), CellTiter-Glo; type: cell-based
# Summary of the method: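 Cells were seeded at 3000 cells/well in RPMI 1640 with 10% FBS and exposed to serially diluted compounds for 16 h at 37 °C, 5% CO2.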
# [2] = target: recombinant human Mcl-1 (residues 171-327) / Bim interaction (Homo sapiens (Human), UniProt Q07820); assay: biochemical; type: binding; conditions: read-out: Mcl-1 HTRF IC50
# [3] = TR-FRET, Mcl-1(171-327) / biotin-Bim (51-76)
# [4] = Homo sapiens, OPM-2, 16 h, read-out: OPM-2 10% FBS IC50 IP, OPM-2 cells, 10% FBS, 16 h, CellTiter-Glo
# Sequence of recombinant human Mcl-1 (residues 171-327) / Bim interaction (Q07820 171-327): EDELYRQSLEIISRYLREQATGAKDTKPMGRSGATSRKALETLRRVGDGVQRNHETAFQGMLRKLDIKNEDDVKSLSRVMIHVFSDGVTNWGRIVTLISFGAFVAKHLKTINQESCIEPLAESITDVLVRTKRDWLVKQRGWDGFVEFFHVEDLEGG
Compound,"IC50 ([1]; read-out: OPM-2 10% FBS IC50 IP, OPM-2 cells, 10% FBS, 16 h, CellTiter-Glo)","IC50 [2, 3]","IC50 ([1]; Homo sapiens, OPM-2, 16 h, read-out: OPM-2 10% FBS IC50 IP, OPM-2 cells, 10% FBS, 16 h incubation)","IC50 ([2]; 0.1 nM Mcl-1(171-327), 0.05 nM biotin-Bim (51-76))","IC50 [1, 4]"
"C[C@@H]1[C@@H](C)CCC[C@@](O)(CCN2CCOCC2)[C@@H]2CC[C@H]2CN2C[C@@]3(CCCc4cc(Cl)ccc43)COc3ccc(cc32)C(=O)NS1(=O)=O [Example 100095, (1S,3′R,6′R,7′R,11′S,12′R)-6-chloro-7′-hydroxy-11′,12′-dimethyl-7′-(2-(4-morpholinyl)ethyl)-3,4-dihydro-2H,15′H-spiro[naphthalene-1,22′-[20]oxa[13]thia[1,14]diazatetracyclo [14.7.2.0~3,6~.0~19,24~]pentacosa[16,18,24]trien]-15′-one 13′,13′-dioxide]",113 nM,0.148 nM,–,–,–
"COCCN1CCN(C[C@]2(OC)/C=C/C[C@H](C)[C@@H](C)S(=O)(=O)NC(=O)c3ccc4c(c3)N(C[C@@H]3CC[C@H]32)C[C@@]2(CCCc3cc(Cl)ccc32)CO4)CC1=O [Example 55, (1S,3′R,6′R,7′S,8′E,11′S,12′R)-6-chloro-7′-methoxy-7′-((4-(2-methoxyethyl)-3-oxo-1-piperazinyl)methyl)-11′,12′-dimethyl-3,4-dihydro-2H,15′H-spiro[naphthalene-1,22′-[20]oxa[13]thia[1,14]diazatetracyclo [14.7.2.0~3,6~.0~19,24~]pentacosa[8,16,18,24]tetraen]-15′-one 13′,13′-dioxide]",–,–,80 nM,0.162 nM,–
"CC[C@]1(CO)/C=C/C[C@H](C)[C@@H](C)S(=O)(=O)NC(=O)c2ccc3c(c2)N(C[C@@H]2CC[C@H]21)C[C@@]1(CCCc2cc(Cl)ccc21)CO3 (single isomer, unassigned) [Example 100605]",–,3.25 nM,–,–,7950 nM
"C[C@@H]1[C@@H](C)C/C=C/[C@@](O)(CC2=NC(C)(C)CO2)[C@@H]2CC[C@H]2CN2C[C@@]3(CCCc4cc(Cl)ccc43)COc3ccc(cc32)C(=O)NS1(=O)=O [Example 100346, (1S,3′R,6′R,7′S,8′E,11′S,12′R)-6-chloro-7′-((4,4-dimethyl-4,5-dihydro-1,3-oxazol-2-yl)methyl)-7′-hydroxy-11′,12′-dimethyl-3,4-dihydro-2H,15′H-spiro[naphthalene-1,22′-[20]oxa[13]thia[1,14]diazatetracyclo [14.7.2.0~3,6~.0~19,24~]pentacosa[8,16,18,24]tetraen]-15′-one 13′,13′-dioxide]",–,0.735 nM,–,–,248 nM
"CO[C@]1(CC=O)/C=C/C[C@H](C)[C@@H](C)S(=O)(=O)NC(=O)c2ccc3c(c2)N(C[C@@H]2CC[C@H]21)C[C@@]1(CCCc2cc(Cl)ccc21)CO3 [Example 100322, ((1S,3′R,6′R,7′R,8′E,11′S,12′R)-6-chloro-7′-methoxy-11′,12′-dimethyl-13′,13′-dioxido-15′-oxo-3,4-dihydro-2H-spiro[naphthalene-1,22′-[20]oxa[13]thia[1,14]diazatetracyclo [14.7.2.0~3,6~.0~19,24~]pentacosa[8,16,18,24]tetraen]-7′-yl)acetaldehyde]",–,2.23 nM,–,–,1540 nM
"CO[C@@]1(Cc2nc(C)co2)/C=C/C[C@H](C)[C@@H](C)S(=O)(=O)NC(=O)c2ccc3c(c2)N(C[C@@H]2CC[C@H]21)C[C@@]1(CCCc2cc(Cl)ccc21)CO3 [Example 100527, (1S,3′R,6′R,7′S,8′E,11′S,12′R)-6-chloro-7′-methoxy-11′,12′-dimethyl-7′-((4-methyl-1,3-oxazol-2-yl)methyl)-3,4-dihydro-2H,15′H-spiro[naphthalene-1,22′-[20]oxa[13]thia[1,14]diazatetracyclo [14.7.2.0~3,6~.0~19,24~]pentacosa[8,16,18,24]tetraen]-15′-one 13′,13′-dioxide]",–,3.6 nM,–,–,3570 nM
